The target in experiment [1] is T1, mGIPR (Mus musculus, UniProt Q0P543).
T1 construct: expressed in transfected cells; host or cells: HEK293
T1 sequence (Q0P543 19-460): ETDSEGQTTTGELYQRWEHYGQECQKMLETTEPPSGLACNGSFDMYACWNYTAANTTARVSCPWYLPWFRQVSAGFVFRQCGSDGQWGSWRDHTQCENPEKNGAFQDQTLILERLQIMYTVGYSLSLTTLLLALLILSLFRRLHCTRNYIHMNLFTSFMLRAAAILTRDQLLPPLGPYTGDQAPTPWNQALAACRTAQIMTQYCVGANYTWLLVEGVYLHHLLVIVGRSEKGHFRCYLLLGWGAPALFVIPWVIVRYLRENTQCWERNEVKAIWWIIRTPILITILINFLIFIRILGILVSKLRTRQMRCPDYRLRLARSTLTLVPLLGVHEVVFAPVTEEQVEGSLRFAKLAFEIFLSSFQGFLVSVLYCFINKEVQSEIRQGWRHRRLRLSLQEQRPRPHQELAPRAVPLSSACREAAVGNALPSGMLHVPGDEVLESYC
Description: GIPR agonist activity, cAMP in transfected HEK293 cells. The class given is cell-based.
Description: HEK293 cells were co-transfected with cDNA encoding GLP-1R or GIPR. In a test for determining the compound, the cells were inoculated in a 96-well plate 2 h in advance, the polypeptide compound was dissolved with DMSO, and diluted to different multiples with a culture medium containing 0.1% bovine serum albumin and added to the co-transfected cells.

Experiment [2] has as its target T2, mGLP-1R (Mus musculus, UniProt O35659).
T2 construct: expressed in transfected cells; host or cells: HEK293
T2 sequence (O35659 22-463): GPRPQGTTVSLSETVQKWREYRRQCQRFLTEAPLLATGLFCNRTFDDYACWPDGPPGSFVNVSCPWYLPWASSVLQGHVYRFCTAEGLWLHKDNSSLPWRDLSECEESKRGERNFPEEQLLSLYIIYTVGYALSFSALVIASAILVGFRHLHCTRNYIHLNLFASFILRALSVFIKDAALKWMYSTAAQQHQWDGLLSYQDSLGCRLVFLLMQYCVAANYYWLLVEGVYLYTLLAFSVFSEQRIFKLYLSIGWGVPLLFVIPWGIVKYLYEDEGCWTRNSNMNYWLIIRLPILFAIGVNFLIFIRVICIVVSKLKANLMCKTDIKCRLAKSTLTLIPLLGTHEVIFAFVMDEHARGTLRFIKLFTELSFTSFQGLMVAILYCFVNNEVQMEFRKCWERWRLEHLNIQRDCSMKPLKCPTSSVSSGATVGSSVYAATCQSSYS
In words: GLP-1R agonist activity, cAMP in transfected HEK293 cells. The class given is cell-based.
Description: HEK293 cells were co-transfected with cDNA encoding GLP-1R or GIPR. In a test for determining the compound, the cells were inoculated in a 96-well plate 2 h in advance, the polypeptide compound was dissolved with DMSO, and diluted to different multiples with a culture medium containing 0.1% bovine serum albumin and added to the co-transfected cells. After the cells were incubated for 20 min, fluorescence values were determined through microplate reader of an ELISA kit of the Cisbo Company, a standard curve was established to convert the fluorescence values into corresponding cAMP values, and the EC50 value of the compound was calculated through nonlinear regression of Graphpad Prism 5.0 software.

Setting [3] is: HEK293 cells transfected with GIPR, cAMP, 20 min incubation, read-out: mGIPR EC50.
Where [4] appears, read: HEK293 cells transfected with GLP-1R, cAMP, 20 min incubation, read-out: mGLP-1R EC50.

pEC50: −log10 of the molar value. Read-outs that look alike come from different tables or passages of the source. Where a SMILES comes first, the peptide text is derived from it.

For the compound `CCCCCCCCCCCCCCCC(=O)N[C@@H](CCC(=O)NCCCC[C@H](NC(=O)[C@H](CCC(N)=O)NC(=O)[C@H](C)NC(=O)[C@@H](NC(=O)[C@H](CCCCN)NC(=O)[C@H](CC(=O)O)NC(=O)[C@H](CC(C)C)NC(=O)C1(NC(=O)[C@@H](NC(=O)[C@H](CO)NC(=O)[C@H](Cc2ccc(O)cc2)NC(=O)[C@H](CC(=O)O)NC(=O)[C@H](CO)NC(=O)[C@@H](NC(=O)[C@H](Cc2ccccc2)NC(=O)[C@@H](NC(=O)CNC(=O)[C@H](CCC(=O)O)NC(=O)C(C)(C)NC(=O)[C@@H](N)Cc2ccc(O)cc2)[C@@H](C)O)[C@@H](C)O)[C@@H](C)CC)CCC1)[C@@H](C)CC)C(=O)N[C@@H](C)C(=O)N[C@@H](Cc1ccccc1)C(=O)N[C@H](C(=O)N[C@@H](CCC(N)=O)C(=O)N[C@@H](Cc1c[nH]c2ccccc12)C(=O)N[C@@H](CC(C)C)C(=O)N[C@H](C(=O)N[C@@H](C)C(=O)NCC(=O)NCC(=O)N1CCC[C@H]1C(=O)N[C@@H](CO)C(=O)N[C@@H](CO)C(=O)NCC(=O)N[C@@H](C)C(=O)N1CCC[C@H]1C(=O)N1CCC[C@H]1C(=O)N1CCC[C@H]1C(=O)N[C@@H](CO)C(N)=O)[C@@H](C)CC)C(C)C)C(=O)O` [ID NO: 19], the pEC50 in experiment [1] (setting [3]) was 11.10; in experiment [2] (setting [4]) it was 10.92.
The like results for `CCCCCCCCCCCCCCCC(=O)N[C@@H](CCC(=O)NCCCC[C@H](NC(=O)[C@H](CCC(N)=O)NC(=O)[C@H](C)NC(=O)[C@@H](NC(=O)[C@H](CCCCN)NC(=O)[C@H](CC(=O)O)NC(=O)[C@H](CC(C)C)NC(=O)[C@H](C)NC(=O)[C@@H](NC(=O)[C@H](CO)NC(=O)[C@H](Cc1ccc(O)cc1)NC(=O)[C@H](CC(=O)O)NC(=O)[C@H](CO)NC(=O)[C@@H](NC(=O)[C@H](Cc1ccccc1)NC(=O)[C@@H](NC(=O)CNC(=O)[C@H](CCC(=O)O)NC(=O)[C@H](C)NC(=O)[C@@H](N)Cc1ccc(O)cc1)[C@@H](C)O)[C@@H](C)O)[C@@H](C)CC)[C@@H](C)CC)C(=O)N[C@@H](C)C(=O)N[C@@H](Cc1ccccc1)C(=O)N[C@H](C(=O)N[C@@H](CCC(N)=O)C(=O)N[C@@H](Cc1c[nH]c2ccccc12)C(=O)N[C@@H](CC(C)C)C(=O)N[C@H](C(=O)N[C@@H](C)C(=O)NCC(=O)NCC(=O)N1CCC[C@H]1C(=O)N[C@@H](CO)C(=O)N[C@@H](CO)C(=O)NCC(=O)N[C@@H](C)C(=O)N1CCC[C@H]1C(=O)N1CCC[C@H]1C(=O)N1CCC[C@H]1C(=O)N[C@@H](CO)C(N)=O)[C@@H](C)CC)C(C)C)C(=O)O` [ID NO: 15] were, in that order, 10.27 and 10.37.
On to `CC[C@H](C)[C@H](NC(=O)[C@H](CC(C)C)NC(=O)[C@H](Cc1c[nH]c2ccccc12)NC(=O)[C@H](CCC(N)=O)NC(=O)[C@@H](NC(=O)[C@H](Cc1ccccc1)NC(=O)[C@H](C)NC(=O)[C@H](CCCCNC(=O)COCCOCCNC(=O)COCCOCCNC(=O)CC[C@H](NC(=O)CCCCCCCCCCCCCCCCC(=O)O)C(=O)O)NC(=O)[C@H](CCC(N)=O)NC(=O)[C@H](C)NC(=O)[C@@H](NC(=O)[C@H](CCCCN)NC(=O)[C@H](CC(=O)O)NC(=O)[C@H](CC(C)C)NC(=O)C(C)(C)NC(=O)[C@@H](NC(=O)[C@H](CO)NC(=O)[C@H](Cc1ccc(O)cc1)NC(=O)[C@H](CC(=O)O)NC(=O)[C@H](CO)NC(=O)[C@@H](NC(=O)[C@H](Cc1ccccc1)NC(=O)[C@@H](NC(=O)CNC(=O)[C@H](CCC(=O)O)NC(=O)C1(NC(=O)[C@@H](N)Cc2ccc(O)cc2)CCC1)[C@@H](C)O)[C@@H](C)O)[C@@H](C)CC)[C@@H](C)CC)C(C)C)C(=O)N[C@@H](C)C(=O)NCC(=O)NCC(=O)N1CCC[C@H]1C(=O)N[C@@H](CO)C(=O)N[C@@H](CO)C(=O)NCC(=O)N[C@@H](C)C(=O)N1CCC[C@H]1C(=O)N1CCC[C@H]1C(=O)N1CCC[C@H]1C(=O)N[C@@H](CO)C(N)=O` [ID NO: 7], for which the figures for the pEC50 in experiment [1] and in experiment [2] were 11.12 and 11.26, respectively.
`CCCCCCCCCCCCCCCC(=O)N[C@@H](CCC(=O)NCCCC[C@H](NC(=O)[C@H](CCC(N)=O)NC(=O)[C@H](C)NC(=O)[C@@H](NC(=O)[C@H](CCCCN)NC(=O)[C@H](CC(=O)O)NC(=O)[C@H](CC(C)C)NC(=O)[C@H](C)NC(=O)[C@@H](NC(=O)[C@H](CO)NC(=O)[C@H](Cc1ccc(O)cc1)NC(=O)[C@H](CC(=O)O)NC(=O)[C@H](CO)NC(=O)[C@@H](NC(=O)[C@H](Cc1ccccc1)NC(=O)[C@@H](NC(=O)CNC(=O)[C@H](CCC(=O)O)NC(=O)C(C)(C)NC(=O)[C@@H](N)Cc1ccc(O)cc1)[C@@H](C)O)[C@@H](C)O)[C@@H](C)CC)[C@@H](C)CC)C(=O)N[C@@H](C)C(=O)N[C@@H](Cc1ccccc1)C(=O)N[C@H](C(=O)N[C@@H](CCC(N)=O)C(=O)N[C@@H](Cc1c[nH]c2ccccc12)C(=O)N[C@@H](CC(C)C)C(=O)N[C@H](C(=O)N[C@@H](C)C(=O)NCC(=O)NCC(=O)N1CCC[C@H]1C(=O)N[C@@H](CO)C(=O)N[C@@H](CO)C(=O)NCC(=O)N[C@@H](C)C(=O)N1CCC[C@H]1C(=O)N1CCC[C@H]1C(=O)N1CCC[C@H]1C(=O)N[C@@H](CO)C(N)=O)[C@@H](C)CC)C(C)C)C(=O)O` [ID NO: 17] (HELM PEPTIDE1{Y.[Aib].E.G.T.F.T.S.D.Y.S.I.A.L.D.K.I.A.Q.K.A.F.V.Q.W.L.I.A.G.G.P.S.S.G.A.P.P.P.S.[am]}|PEPTIDE2{[CCCCCCCCCCCCCCCC(=O)[*:2]].[gGlu]}$PEPTIDE1,PEPTIDE2,20:R3-2:R2$$$V2.0): the pEC50 was 11.01 in experiment [1] (setting [3]) and 10.34 in experiment [2] (setting [4]).

The pEC50 is −log10 of the EC50, conventionally taken in molar units.

The values above are taken from patent publication US20220251163A1 (Sinopep-Allsino Biopharmaceutical Co., Ltd., priority 2019, published 2022).
